Results as given in patent US20110263649A1, “CRYSTALLINE FORM OF LENALIDOMIDE AND A PROCESS FOR ITS PREPARATION” (GENERICS [UK] LIMITED, priority 2008, published 2011).
Where two headings read alike, the source gives them in different places.

Assays:
[1] = as disclosed in WO 2005/023192; cited from earlier work
[2] = aqueous solubility of lenalidomide crystalline forms; conditions: forms prepared and tested by the inventors
[3] = as indicated in WO 2005/023192; cited from earlier work

Row | aqueous solubility [2] | SMILES | weight loss upon storage [1] | aqueous solubility [3]
1 | – | Nc1cccc2c1CN(C1CCC(=O)NC1=O)C2=O (stereo not shown) [form E, lenalidomide] | the greatest weight loss upon storage | –
2 | High solubility in aqueous medium | Nc1cccc2c1CN(C1CCC(=O)NC1=O)C2=O (stereo not shown) [novel crystalline form, 3-(4-amino-1-oxo-1,3-dihydro-isoindol-2-yl)-piperidine-2,6-dione] | – | –
3 | poor aqueous solubility | Nc1cccc2c1CN(C1CCC(=O)NC1=O)C2=O (stereo not shown) [polymorphic mixture, lenalidomide] | – | poorly soluble in water
